How the values were obtained:
human TLR7 = target: T1, human TLR7 (Homo sapiens, UniProt Q9NYK1); assay: HEK-Blue hTLR7 SEAP reporter gene agonist assay; format: cell-based; conditions: HEK-Blue hTLR7 cells, 16 to 22 hours incubation
T1 construct: host or cells: HEK-Blue hTLR7 (HEK293-derived reporter cells)
T1 sequence (Q9NYK1 27-1049): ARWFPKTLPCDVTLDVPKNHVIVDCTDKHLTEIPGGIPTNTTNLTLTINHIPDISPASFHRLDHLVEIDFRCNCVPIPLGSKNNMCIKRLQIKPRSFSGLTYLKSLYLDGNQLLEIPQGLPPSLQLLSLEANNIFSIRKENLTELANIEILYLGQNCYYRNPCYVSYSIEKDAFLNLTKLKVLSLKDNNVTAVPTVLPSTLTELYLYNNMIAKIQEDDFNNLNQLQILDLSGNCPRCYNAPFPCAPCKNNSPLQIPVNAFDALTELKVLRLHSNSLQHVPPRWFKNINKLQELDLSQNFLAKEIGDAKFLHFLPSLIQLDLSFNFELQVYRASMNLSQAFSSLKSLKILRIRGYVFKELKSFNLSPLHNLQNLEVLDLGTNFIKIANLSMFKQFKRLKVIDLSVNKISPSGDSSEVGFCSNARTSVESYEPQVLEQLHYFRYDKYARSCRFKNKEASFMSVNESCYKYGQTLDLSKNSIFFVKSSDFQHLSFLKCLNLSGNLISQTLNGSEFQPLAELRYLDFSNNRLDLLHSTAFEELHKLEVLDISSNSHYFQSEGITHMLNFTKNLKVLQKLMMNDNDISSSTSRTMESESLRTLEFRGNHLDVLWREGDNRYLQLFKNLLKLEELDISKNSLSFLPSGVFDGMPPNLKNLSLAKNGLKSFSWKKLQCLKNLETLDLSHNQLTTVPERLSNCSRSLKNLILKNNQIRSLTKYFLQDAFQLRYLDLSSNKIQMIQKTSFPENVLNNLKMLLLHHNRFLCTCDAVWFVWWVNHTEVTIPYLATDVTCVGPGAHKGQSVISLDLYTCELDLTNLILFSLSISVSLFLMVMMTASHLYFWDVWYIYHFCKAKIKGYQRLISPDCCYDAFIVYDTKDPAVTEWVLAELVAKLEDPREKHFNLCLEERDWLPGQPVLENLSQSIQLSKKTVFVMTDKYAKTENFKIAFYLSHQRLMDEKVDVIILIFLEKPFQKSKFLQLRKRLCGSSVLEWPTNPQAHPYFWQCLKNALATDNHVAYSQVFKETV
Summary of the method: (§1)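 HEK-Blue cells stably expressing human TLR7 or TLR8 carry a SEAP reporter driven by a minimal IFN-β promoter fused to 5×NF-κB and AP-1 sites. Compounds at […] final, 16 to 22 h. SEAP in the medium measured with Quanti-blue at OD650, and EC50 derived.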

human TLR8 = target: T2, human TLR8 (Homo sapiens, UniProt Q9NR97); assay: HEK-Blue hTLR8 SEAP reporter gene agonist assay; format: cell-based; conditions: HEK-Blue hTLR8 cells, 16 to 22 hours incubation
T2 construct: host or cells: HEK-Blue hTLR8 (HEK293-derived reporter cells)
T2 sequence (Q9NR97 27-1041): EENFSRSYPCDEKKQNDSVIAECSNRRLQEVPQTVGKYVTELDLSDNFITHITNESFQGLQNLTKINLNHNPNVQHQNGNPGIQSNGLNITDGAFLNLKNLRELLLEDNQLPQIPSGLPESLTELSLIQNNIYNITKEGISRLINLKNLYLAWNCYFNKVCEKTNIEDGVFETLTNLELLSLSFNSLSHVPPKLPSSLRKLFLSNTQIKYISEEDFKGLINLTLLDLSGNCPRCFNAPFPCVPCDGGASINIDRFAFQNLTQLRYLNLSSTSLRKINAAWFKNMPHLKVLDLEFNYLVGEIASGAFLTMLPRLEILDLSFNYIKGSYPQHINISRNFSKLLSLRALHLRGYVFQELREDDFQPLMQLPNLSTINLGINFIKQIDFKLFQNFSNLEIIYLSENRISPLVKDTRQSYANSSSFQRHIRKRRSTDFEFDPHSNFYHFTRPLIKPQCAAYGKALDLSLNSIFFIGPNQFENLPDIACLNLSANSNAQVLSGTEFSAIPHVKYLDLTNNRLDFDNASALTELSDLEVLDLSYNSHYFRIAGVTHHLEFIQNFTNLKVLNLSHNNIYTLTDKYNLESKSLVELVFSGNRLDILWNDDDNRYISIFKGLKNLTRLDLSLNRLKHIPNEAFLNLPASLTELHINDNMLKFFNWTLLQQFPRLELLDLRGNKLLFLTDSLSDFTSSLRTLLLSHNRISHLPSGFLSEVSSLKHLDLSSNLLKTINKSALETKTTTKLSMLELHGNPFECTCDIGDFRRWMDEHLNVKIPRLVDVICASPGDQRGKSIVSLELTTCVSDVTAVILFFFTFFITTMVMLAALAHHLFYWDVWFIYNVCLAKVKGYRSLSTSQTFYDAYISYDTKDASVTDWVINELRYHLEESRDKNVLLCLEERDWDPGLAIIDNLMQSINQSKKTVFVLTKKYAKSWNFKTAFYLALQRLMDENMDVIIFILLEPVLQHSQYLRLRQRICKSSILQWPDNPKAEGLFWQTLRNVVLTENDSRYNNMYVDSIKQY
Summary of the method: as §1

SMILES	EC50 (human TLR7)	EC50 (human TLR8)
CCC[C@@H](CO)Nc1nc(N)nc2ccn(Cc3ccc(CN4CCCC4)cc3Cl)c(=O)c12 [Compound I-168, (S)-2-amino-6-(2-chloro-4-(pyrrolidin-1-ylmethyl)benzyl)-4-((1-hydroxypentan-2-yl)amino)pyrido[4,3-d]pyrimidin-5(6H)-one]	40 nM	10 nM
CCC[C@@H](CO)Nc1nc(N)nc2ccn(Cc3ccc(CN4CCCC4)cc3C)c(=O)c12 [Compound I-169, (S)-2-amino-4-((1-hydroxypentan-2-yl)amino)-6-(2-methyl-4-(pyrrolidin-1-ylmethyl)benzyl)pyrido[4,3-d]pyrimidin-5(6H)-one]	70 nM	20 nM
CCC[C@@H](C)Nc1nc(N)nc2ccn(Cc3ccc(C(=O)N4CCNCC4)cc3OC)c(=O)c12 [Compound I-180, (R)-2-amino-6-(2-methoxy-4-(piperazine-1-carbonyl)benzyl)-4-(pentan-2-ylamino)pyrido[4,3-d]pyrimidin-5(6H)-one]	38 nM	12 nM
CCC[C@@H](C)Nc1nc(N)nc2ccn(Cc3ccc(C(=O)N4CC5CC(C4)N5)cc3OC)c(=O)c12 [Compound I-181, 6-(4-(3,6-diazabicyclo[3.1.1]heptane-3-carbonyl)-2-methoxybenzyl)-2-amino-4-(((R)-pentan-2-yl)amino)pyrido[4,3-d]pyrimidin-5(6H)-one]	30 nM	7 nM
CCC[C@@H](C)Nc1nc(N)nc2ccn(Cc3ccc(C(=O)N4CCN(C)CC4)cc3OC)c(=O)c12 [Compound I-182, (R)-2-amino-6-(2-methoxy-4-(4-methylpiperazine-1-carbonyl)benzyl)-4-(pentan-2-ylamino)pyrido[4,3-d]pyrimidin-5(6H)-one]	54 nM	58 nM
CCC[C@@H](C)Nc1nc(N)nc2ccn(Cc3ccc(C(=O)N4CCN(C(C)C)CC4)cc3OC)c(=O)c12 [Compound I-183, (R)-2-amino-6-(4-(4-isopropylpiperazine-1-carbonyl)-2-methoxybenzyl)-4-(pentan-2-ylamino)pyrido[4,3-d]pyrimidin-5(6H)-one]	91 nM	83 nM
CCCCNc1nc(N)nc2cc(C)n(Cc3ccc(CN4CCCC4)cc3)c(=O)c12 [Compound I-187, 2-amino-4-(butylamino)-7-methyl-6-(4-(pyrrolidin-1-ylmethyl)benzyl)pyrido[4,3-d]pyrimidin-5(6H)-one]	145 nM	64 nM
CCC[C@@H](CO)Nc1nc(N)nc2ccn(Cc3ccc(C(=O)N4CCN(C)CC4)cc3OC)c(=O)c12 [Compound I-212, (S)-2-amino-4-((1-hydroxypentan-2-yl)amino)-6-(2-methoxy-4-(4-methylpiperazine-1-carbonyl)benzyl)pyrido[4,3-d]pyrimidin-5(6H)-one]	60 nM	4 nM
CCC[C@@H](CO)Nc1nc(N)nc2ccn(Cc3ccc(CN4CCN(CCCCCCN)CC4)cc3OC)c(=O)c12 [Compound I-217, (S)-2-amino-6-(4-((4-(6-aminohexyl)piperazin-1-yl)methyl)-2-methoxybenzyl)-4-((1-h hydroxypentan-2-yl)amino)pyrido[4,3-d]pyrimidin-5(6H)-one]	100 nM	35 nM

Next, values leading:

EC50 (human TLR7)	EC50 (human TLR8)	SMILES
40 nM	60 nM	CCC[C@@H](C)Nc1nc(N)nc2ccn(Cc3ccc(CN(CCC)CCO)cc3OC)c(=O)c12 [Compound I-165, (R)-2-amino-6-(4-(((2-hydroxyethyl)(propyl)amino)methyl)-2-methoxybenzyl)-4-(pentan-2-ylamino)pyrido[4,3-d]pyrimidin-5(6H)-one]
30 nM	30 nM	CCC[C@@H](C)Nc1nc(N)nc2ccn(Cc3ccc(CN(CCO)CCO)cc3OC)c(=O)c12 [Compound I-166, (R)-2-amino-6-(4-((bis(2-hydroxyethyl)amino)methyl)-2-methoxybenzyl)-4-(pentan-2-ylamino)pyrido[4,3-d]pyrimidin-5(6H)-one]
91 nM	58 nM	CCC[C@@H](C)Nc1nc(N)nc2ccn(Cc3ccc(CN4CCN(C)CC4)cc3OC)c(=O)c12 [Compound I-179, (R)-2-amino-6-(2-methoxy-4-((4-methylpiperazin-1-yl)methyl)benzyl)-4-(pentan-2-ylamino)pyrido[4,3-d]pyrimidin-5(6H)-one]
96 nM	107 nM	CCC[C@@H](C)Nc1nc(N)nc2ccn(Cc3ccc(CN4CCNCC4)cc3OC)c(=O)c12 [Compound I-184, (R)-2-amino-6-(2-methoxy-4-(piperazin-1-ylmethyl)benzyl)-4-(pentan-2-ylamino)pyrido[4,3-d]pyrimidin-5(6H)-one]
31 nM	1 nM	CCC[C@@H](CO)Nc1nc(N)nc2ccn(Cc3ccc(CN(C)C)cc3OC)c(=O)c12 [Compound I-195, (S)-2-amino-6-(4-((dimethylamino)methyl)-2-methoxybenzyl)-4-((1-hydroxypentan-2-yl)amino)pyrido[4,3-d]pyrimidin-5(6H)-one]
100 nM	5 nM	CCC[C@@H](C)Nc1nc(N)nc2ccn(Cc3ccc(CNC)cc3OC)c(=O)c12 [Compound I-198, (R)-2-amino-6-(2-methoxy-4-((methylamino)methyl)benzyl)-4-(pentan-2-ylamino)pyrido[4,3-d]pyrimidin-5(6H)-one]
100 nM	9 nM	CCC[C@@H](C)Nc1nc(N)nc2ccn(Cc3ccc(CN4CCN(CCN)CC4)cc3OC)c(=O)c12 [Compound I-213, (R)-2-amino-6-(4-((4-(2-aminoethyl)piperazin-1-yl)methyl)-2-methoxybenzyl)-4-(pentan-2-ylamino)pyrido[4,3-d]pyrimidin-5(6H)-one]
86 nM	3 nM	CCC[C@@H](CO)Nc1nc(N)nc2ccn(Cc3ccc(CNC)cc3OC)c(=O)c12 [Compound I-214, (S)-2-amino-4-((1-hydroxypentan-2-yl)amino)-6-(2-methoxy-4-((methylamino)methyl)benzyl)pyrido[4,3-d]pyrimidin-5(6H)-one]
63 nM	40 nM	CCC[C@@H](C)Nc1nc(N)nc2ccn(Cc3ccc(CN4CCN(CCCO)CC4)cc3OC)c(=O)c12 [Compound I-216, (R)-2-amino-6-(4-((4-(3-hydroxypropyl)piperazin-1-yl)methyl)-2-methoxybenzyl)-4-(pentan-2-ylamino)pyrido[4,3-d]pyrimidin-5(6H)-one]

From US20250059183A1, “PYRIDINE[4,3-D]PYRIMIDINE COMPOUND AS TLR7/8 AGONIST” (SHANGHAI VISONPHARMA CO., LTD., priority 2021, published 2025)
